Data reported in US12145920B2, “Lanthionine c-like protein 2 ligands, cells prepared therewith, and therapies using same” (NImmune Biopharma, Inc., priority 2019, dated 2024).

Tests used:
[1] = Pharmacokinetics after oral dosing in mice, plasma LC-MS/MS; type: in vivo, C57BL/6 mice; set-up: exposure: unit not given here
Procedure: C57BL/6 mice were dosed orally with 10 and 40 mg/kg of BT-63 by oral gavage of methylcellulose solution containing BT-63. After gavage, blood was collected at 0.5, 1, 2, 4, 6, 8, 12 and 24 hours after treatment. Plasma was collected from blood by centrifugation. BT-63 was extracted from plasma and quantified by LC-MS/MS.

[2] = system: Non-obese diabetic (NOD) ShiLt mice; assay: NOD mouse model of T1D; type: in vivo
Procedure: NOD model. Non-obese diabetic (NOD) ShiLt mice were used in this study. NOD mice have numerous genetic mutations that enable the spontaneous onset of hyperglycemia and pancreatic pathologies associated with T1D. Mice entered into the experiment at 9 weeks of age and were monitored for a […]. Mice were treated daily with vehicle, 10 mg/kg BT-63, or 20 mg/kg BT-63 by oral gavage. Once weekly blood samples were collected from the tail vein to be tested for glucose concentration by glucometer. Mice were euthanized after 12 weeks for collection of blood and organs for immunological testing.
Treatment administration. BT-63 was prepared within a 0.5% methylcellulose (12-15 cP) solution. Dosage used was 10 or 20 mg/kg delivered once daily. Mice were weighed on a weekly basis to update dosage formulation. Dosage was calculated based off mean body weights for each gender. Oral dosage was delivered by orogastric gavage of dosage in 0.2 mL volume.
Immunological analysis. Blood was collected by cardiac puncture into heparinized tube. Plasma was separated following centrifugation and assayed by Luminex for cytokine and hormones related to the development of T1D. Spleens were excised, crushed and filtered to provide a cellular suspension. Red blood cells were lysed. Cells were labeled with mixtures of extracellular (CD45, CD3, CD4, CD8, CD19, NK1.1, CD25, F4/80, CD11b, Gr1, CX3CR1, CD64) and intracellular (Tbet, BCL6, FOXP3, IFNγ, IL21, IL10) antibodies in a sequential live staining in 96-well plates in preparation for flow cytometry. Data was captured on a BD FACS Celesta and analyzed using FacsDiva.

[3] = system: resiquimod-treated C57BL6 mice; assay: TLR7/9 (resiquimod) induced mouse model of SLE; type: in vivo
Procedure: Resiquimod model. Resiquimod was prepared in a 1:3 ethanol:acetone mixture to provide 85 micrograms of resiquimod to each mouse. Resiquimod solution was well mixed and applied to the ear of C57BL6 mice three times weekly over a 2-week period. Mice were monitored for signs of disease daily.
Treatment administration. BT-63 was prepared within a 0.5% methylcellulose (12-15 cP) solution. Dosage used was 20 mg/kg delivered once daily. Mice were weighed on a weekly basis to update dosage formulation. Dosage was calculated based off mean body weights for each gender. Oral dosage was delivered by orogastric gavage of dosage in 0.2 mL volume.
Immunological analysis. Blood was collected by cardiac puncture into EDTA tube. Plasma was separated following centrifugation and assayed by ELISA for anti-dsDNA antibodies. Urine was collected for assay for albumin content to test for kidney function.
Spleens were excised, crushed and filtered to provide a cellular suspension. Red blood cells were lysed. Cells were labeled with mixtures of extracellular (CD45, CD3, CD4, CD8, CD19, NK1.1, CD25, F4/80, CD11b, Gr1, CX3CR1, CD64) and intracellular (Tbet, BCL6, FOXP3, IFNγ, IL6, IL10) antibodies in a sequential live staining in 96-well plates in preparation for flow cytometry. Data was captured on a BD FACS Celesta and analyzed using FacsDiva.

[4] = system: colonic CD4+ T cells from Mdr1a-/- mice; assay: Gene expression in colonic CD4+ T cells of treated Mdr1a-/- mice; type: in vivo; conditions: oral treatment, 10 weeks of age
Description: To identify signaling pathways modulated by BT-63 in vivo, we will isolate colonic CD4+ T cells from vehicle- and BT-63-treated Mdr1a−/− mice at presentation of colitis at 10 weeks of age. […] Meanwhile, expression of Pten and Ph1pp1 will increase. […] Cells will also be differentiated in the presence of inhibitors for PTEN (SF1670) or STATS (STAT5i). In the Treg differentiation media containing both IL-2 or IL-12, the addition of STAT5i will prevent the effects of BT-63 on CD25+ FOXP3+ and CD25+ Tbet+ cells. In contrast, SF1670 only will prevent effects of BT-63 on CD25+ Tbet+ cells in IL-2 containing media.

NZB/W F1 mice = assay: NZB/W F1 genetic mouse model of SLE (BT-63); type: in vivo
Procedure: NZB/W F 1 model. Twenty-four-week-old, female NZB/W F1 mice were randomized into vehicle or BT-63-treated arms based on baseline urine protein levels (n=10). BT-63 was orally administered daily at 20 mg/kg for 12 weeks. Mice were weighed on a weekly basis to update dosage formulation. Dosage was calculated based off mean body weights.
Immunological analysis. Blood was collected by cardiac puncture into EDTA tube. Plasma was separated following centrifugation and assayed by ELISA for anti-dsDNA antibodies and IFN-α. Urine was collected to assay for protein content to test for kidney function. Spleens were excised, crushed and filtered to provide a cellular suspension. Red blood cells were lysed. Cells were labeled with mixtures of extracellular (CD45, CD3, CD4, CD8, CD19, CD138, CD25, MHCII, CD11b, CD11c, CXCR3, IgD, IgM) and intracellular (BCL6, FOXP3, IL21, IL6, IL10) antibodies in a sequential live staining in 96-well plates in preparation for flow cytometry. Data was captured on a BD FACS Celesta and analyzed using FacsDiva.

[5] = 21 weeks of age, oral 10 or 20 mg/kg
[6] = spleen, 21 weeks of age, oral 10 or 20 mg/kg
[7] = 2 weeks of oral treatment, 20 mg/kg
[8] = 36 weeks of age (12 weeks of treatment), 20 mg/kg
[9] = spleen, 12 weeks oral 20 mg/kg, relative to vehicle

O=C(CN1CCN(C(=O)c2cccc(-c3nc4ccccc4[nH]3)n2)CC1)c1ccccc1 [BT-63, 2-(4-(6-(1H-benzo[d]imidazol-2-yl)picolinoyl)piperazin-1-yl)-1-phenylethanone]
increase in maximum plasma concentration compared to BT-11 ([1]; equal oral doses (10 mg/kg)): > 100 fold
area under the curve exposure ([1]; oral 10 mg/kg): 1055 ng·h/mL
maximum plasma concentration ([1]; oral 10 mg/kg): 585 ng/mL
exposure ([1]; oral 40 mg/kg): 11552
maximum plasma concentration ([1]; oral 40 mg/kg): 4465 ng/mL
reduction of percentage of hyperglycemic mice ([2]; 20 mg/kg group compared to vehicle): 50%
HbA1c ([2]; 21 weeks of age, 10 mg/kg): reduced
HbA1c ([2]; 21 weeks of age, 20 mg/kg): reduced
plasma MCP-1 [2, 5]: reduced
plasma TNF [2, 5]: reduced
plasma levels of C-peptide [2, 5]: increased
plasma levels of insulin [2, 5]: increased
blood glucose levels ([2]; NOD mice, oral daily, from 19 weeks of age through end): significantly lower
CD4+IL10+ to CD4+IFNγ+ ratio [2, 6]: increased
PD1+ CD4+ T cells [2, 6]: increasing
T follicular helper (Tfh) cells (BCL6+IL21+) [2, 6]: decreasing
concentration of anti-dsDNA antibodies in plasma [3, 7]: reduces
urine albumin content [3, 7]: reduction
IFNγ+ CD8+ T cells ([3]; spleen, 2 weeks, 20 mg/kg oral): reduced
IL6+ cells ([3]; spleen, 2 weeks, 20 mg/kg oral): reduced
expression of Foxo1 [4]: significantly higher expression
expression of Ph1pp1 [4]: increase
expression of Pten [4]: increase
expression of Stat5a [4]: significantly higher expression
body weight change from baseline (weight loss) (NZB/W F1 mice; 12 weeks oral 20 mg/kg): protected mice from weight loss
proteinuria score (NZB/W F1 mice; 12 weeks oral 20 mg/kg, from baseline): prevented worsening
plasma IFN-α levels (NZB/W F1 mice; [8]): reduced
plasma anti-dsDNA levels (NZB/W F1 mice; [8]): reduced
CXCR3+ plasma cells (NZB/W F1 mice; spleen, 12 weeks oral 20 mg/kg): moderate reduction
follicular B cells (NZB/W F1 mice; spleen, 12 weeks oral 20 mg/kg): moderate reduction
plasma cells (NZB/W F1 mice; spleen, 12 weeks oral 20 mg/kg): moderate reduction
CD25+ FOXP3+ regulatory CD4+ T cells (NZB/W F1 mice; [9]): greater reductions
IL6+ myeloid cells (NZB/W F1 mice; [9]): greater reductions
IL21+ BCL6+ follicular helper T cells (NZB/W F1 mice; [9]): greater reductions
